Source: PMC8301544, “A randomized, double‐blind, placebo‐ and positive‐controlled crossover study of the effects of durlobactam on cardiac repolarization in healthy subjects” (Clinical and Translational Science, 2021)
Read-outs that look alike come from different tables or passages of the source.

Assays:
[1] = Plasma pharmacokinetics after single dose in healthy subjects (LC-MS/MS, noncompartmental analysis); assay type: in vivo, human
Experimental: Moxifloxacin was administered open‐label.
Plasma concentrations less than the lower limit of quantification were reported as 0. Plasma concentrations of durlobactam were determined by validated liquid chromatography with tandem mass spectrometry (LC‐MS/MS) assays operated in the negative ion mode (method number M8351072B) performed at Covance (Salt Lake City, UT). For durlobactam, the quantitation range was 5–5000 ng/ml. Moxifloxacin plasma concentrations were determined by LC‐MS/MS operated in the positive ion mode (method number 180M001.01) performed at Pharmaron ABS (Germantown, PA). The quantitation range was 1–1000 ng/ml.
PK parameters were determined with noncompartmental analysis using Phoenix WinNonlin (version 7.0 or higher), and PK parameters were compared with SAS version 9.3 or higher.

healthy subjects [2] = assay: Safety and tolerability (adverse events); assay type: in vivo, human; details: for serious AEs, discontinuation for AEs, deaths: all treatment groups; for incidence of at least one AE: single dose durlobactam 4 g i.v. or moxifloxacin 400 mg oral
Experimental: Safety was assessed from vital signs (systolic/diastolic blood pressure, HR, respiratory rate, and body temperature), physical examination, clinical laboratory tests (serum chemistry, hematology, and urinalysis), 12‐lead safety ECGs, and adverse events (AEs).

[3] = Single dose study in subjects with varying degrees of renal impairment; assay type: in vivo, human; details: severe renal impairment category (CLcr = 0-15 ml/min)
healthy subjects [4] = tested on: healthy subjects
Experimental: The relationship between durlobactam plasma concentration and change‐from‐baseline QTcF (ΔQTcF) was investigated by a linear mixed‐effects modeling approach with a treatment effect‐specific intercept. […] The geometric mean of the individual Cmax values for subjects on the active dose were determined.

[5] = design: method as in PMID 32284380; details: multiple dose regimen for 11 days, 1 g i.v. dose; cited from earlier work
[6] = patients with complicated urinary tract infection, durlobactam/sulbactam 1 g every 6 h for 7 days; cited from earlier work
[7] = single dose, normal renal function; cited from earlier work
[8] = tested on: class A, C, and D β-lactamases; details: cited from earlier work
healthy subjects [9] = assay: Cardiodynamic evaluation, 12-lead 24-h Holter ECG (QTcF, HR, categorical outliers); details: for mean placebo-corrected ΔHR (ΔΔHR) / placebo-corrected change from baseline QTcF (ΔΔQTcF): durlobactam 4 g i.v.; for placebo-corrected change from baseline QTcF (ΔΔQTcF): mean ± spread (90% CI); for subjects with QTcF greater than 450 ms and less than or equal to 480 ms: single dose durlobactam 4 g i.v. or moxifloxacin 400 mg oral
Experimental: This was a partially double‐blind study in healthy adult subjects, which was conducted as a placebo‐ and active‐controlled, single‐infusion, three‐way crossover study. […] Study treatments were administered in the fasted state on day 1 of each treatment period. A 7 (±2) day washout period occurred between successive treatments. Subjects, investigator, and sponsor were blinded to durlobactam and placebo treatment assignment. Moxifloxacin was administered open‐label.
Variables associated with the primary ECG end point, placebo‐corrected change‐from‐baseline QTcF (ΔΔQTcF), were computed from means of measurements made on multiple replicate ECGs extracted at scheduled timepoints from Holter 12‐lead ECG data. Holter 12‐lead ECGs were read centrally (ERT, Rochester, NY). ECG end points included change‐from‐baseline HR, QTcF, PR, and QRS (ΔHR, ΔQTcF, ΔPR, and ΔQRS); placebo‐corrected change‐from‐baseline HR, PR, and QRS (ΔΔHR, ΔΔPR, and ΔΔQRS); categorical outliers for QTcF, HR, PR, and QRS; and frequency of treatment‐emergent changes of T‐wave morphology and U‐wave presence.
During each treatment period, 12‐lead, 24‐h Holter ECGs were continuously recorded and evaluated by a central ECG laboratory.

For CC1=C[C@@H]2CN(C(=O)N2OS(=O)(=O)O)[C@@H]1C(N)=O [durlobactam], which “Vz (volume of distribution)” value ([1]; durlobactam 4 g single 3-h i.v. infusion, n = 31, mean) is on record?
Its value is 33.6 ± 5.2 L.

And the Tmax ([1]; durlobactam 4 g single 3-h i.v. infusion, n = 31, mean, after start of infusion)?
The Tmax was 3.1 ± 0.32 h.

What about the Cmax ([1]; human, plasma, iv, 4 g, durlobactam 4 g single 3-h i.v. infusion, healthy subjects, n = 31, mean, read-out: Cmax) of the same compound?
Its Cmax is 108 µg/mL.

And the Tmax ([1]; human, plasma, iv, 4 g, durlobactam 4 g single 3-h i.v. infusion, n = 31, mean, after start of infusion, read-out: Tmax)?
The Tmax was ~3 h.

What about the Vd ([1]; human, plasma, iv, 4 g, durlobactam 4 g single 3-h i.v. infusion, n = 31, mean, read-out: Vz (volume of distribution)) of the same compound?
The Vd was 33.6 L.

And the Cmax ([1]; human, plasma, iv, 4 g, durlobactam 4 g single 3-h i.v. infusion, read-out: observed geometric mean Cmax)?
The Cmax was 106 µg/mL.

And the AUC(0-inf) ([1]; human, plasma, iv, durlobactam 4 g single 3-h i.v. infusion, n = 31, mean)?
Its AUC(0-inf) is 413 µg·h/mL.

And the AUC(0-t) ([1]; human, plasma, iv, durlobactam 4 g single 3-h i.v. infusion, n = 31, mean, read-out: AUC0-24)?
The AUC(0-t) was 413 µg·h/mL.

And the clearance ([1]; human, plasma, iv, durlobactam 4 g single 3-h i.v. infusion, n = 31, mean, read-out: CL (total body clearance) (converted))?
The clearance was ~165 mL/min.

And the half-life ([1]; human, plasma, iv, durlobactam 4 g single 3-h i.v. infusion, read-out: mean apparent half-life (converted))?
Its half-life is 2.3 h.

And the “fold increase of mean Cmax (4 g dose) above maximum Cmax predicted with a 1 g dose” value ([1]; patients with normal renal function)?
The value was ~3.2 fold.

What about the “fold increase of mean Cmax (4 g dose) above maximum Cmax predicted with a 1 g dose” value ([1]; patients with severe renal impairment) of the same compound?
The value was ~1.5 fold.

And the “serious AEs, discontinuation for AEs, deaths” value (healthy subjects [2])?
The value was “No serious AEs, discontinuation for AEs, or deaths occurred”.

What about the “incidence of fatigue (AE)” value (healthy subjects [2]; durlobactam 4 g i.v., 2 subjects) of the same compound?
The value was 6.5%.

What about the “incidence of at least one AE” value (healthy subjects [2]) of the same compound?
Its value is 19.4%.

What about the “estimated Cmax from linear regression of dose normalized Cmax versus creatinine clearance” value [3] of the same compound?
Its value is 60,000 ng/ml.

And the “plasma concentration up to which an effect on ΔΔQTcF exceeding 10 ms was excluded” value (healthy subjects [4]; durlobactam)?
Its value is ~190,000 ng/ml.

What about the “effect on ECG parameters including QT interval prolongation (C-QT analysis)” value (healthy subjects [4]; durlobactam 4 g i.v. over 3 h) of the same compound?
Its value is “no significant effect”.

And the “fold of excluded concentration (190,000 ng/ml) over therapeutic plasma concentrations” value (healthy subjects [4]; durlobactam, planned dose of 1 g)?
The value was “over 3 fold”.

What about the treatment effect-specific intercept (healthy subjects [4]; durlobactam, not statistically significant) of the same compound?
The treatment effect-specific intercept was 0.6 ms.

What about the “estimated slope of the plasma concentration-QTc relationship” value (healthy subjects [4]; durlobactam, not statistically significant, 90% CI -0.0000232 to 0.0000194) of the same compound?
Its value is −0.0000019 ms per ng/ml.

What about the Cmax [5] of the same compound?
Its Cmax is 28.1 µg/mL.

And the Cmax [6]?
Its Cmax is 39,900 ng/ml.

And the Cmax [7]?
The Cmax was 27,000 ng/ml.

What about the β-lactamase inhibition [8] of the same compound?
Its β-lactamase inhibition is “inhibits class A, C, and D β‐lactamases”.

What about the “mean placebo-corrected ΔHR (ΔΔHR)” value (healthy subjects [9]; 3 h post-start-of-infusion) of the same compound?
Its value is −2.6 bpm.

What about the “mean placebo-corrected ΔHR (ΔΔHR)” value (healthy subjects [9]; 4 h post-start-of-infusion) of the same compound?
Its value is −0.2 bpm.

And the “placebo-corrected change from baseline QTcF (ΔΔQTcF)” value (“placebo-corrected change … (ΔΔQTcF)” for short) (healthy subjects [9]; 6 h)?
The value was 1.8 ms.

And the “placebo-corrected change … (ΔΔQTcF)” value (healthy subjects [9]; 8 h)?
The value was 1.8 ms.

And the “placebo-corrected change … (ΔΔQTcF)” value (healthy subjects [9]; 24 h)?
The value was 0.0 ms.

What about the “effect on HR” value (healthy subjects [9]; durlobactam 4 g supratherapeutic dose) of the same compound?
The value was “no clinically relevant effect on HR”.

What about the “subjects with QTcF greater than 450 ms and less than or equal to 480 ms” value (healthy subjects [9]) of the same compound?
The value was 3.2%.

Which Cmax ([1]; human, plasma, po, 400 mg, moxifloxacin single 400 mg oral dose, read-out: mean Cmax) does the source give for COc1c(N2C[C@@H]3CCCN[C@@H]3C2)c(F)cc2c(=O)c(C(=O)O)cn(C3CC3)c12 [moxifloxacin, reference compound] here?
Its Cmax is 2.18 µg/mL.

And the Tmax ([1]; human, plasma, po, 400 mg, moxifloxacin single 400 mg oral dose, read-out: time to peak plasma concentration)?
The Tmax was ~1.9 h.

What about the AUC(0-t) ([1]; human, plasma, moxifloxacin single 400 mg oral dose, read-out: mean AUC0-last) of the same compound?
The AUC(0-t) was 22.6 µg·h/mL.

And the “geometric mean peak concentration” value ([1]; moxifloxacin single 400 mg oral dose)?
Its value is 2103.4 ng/mL.

And the “serious AEs, discontinuation for AEs, deaths” value (healthy subjects [2])?
The value was “No serious AEs, discontinuation for AEs, or deaths occurred”.

What about the “incidence of at least one AE” value (healthy subjects [2]) of the same compound?
The value was 22.6%.

And the “slope of the concentration-QTc relationship” value (healthy subjects [4]; human, in vivo)?
Its value is 0.0065 ms per ng/ml.

What about the treatment effect-specific intercept (healthy subjects [4]; human, in vivo) of the same compound?
The treatment effect-specific intercept was 0.4 ms.

What about the “subjects with QTcF greater than 450 ms and less than or equal to 480 ms” value (healthy subjects [9]) of the same compound?
Its value is 6.5%.

What about the “subjects with ΔQTcF greater than 30 ms and less than or equal to 60 ms” value (healthy subjects [9]; single dose moxifloxacin 400 mg oral) of the same compound?
The value was 6.5%.
